# Paper PMC9653804, “Multifunctional Derivatives of Spiropyrrolidine Tethered Indeno-Quinoxaline Heterocyclic Hybrids as Potent Antimicrobial, Antioxidant and Antidiabetic Agents: Design, Synthesis, In Vitro and In Silico Approaches” (Molecules, 2022)
# Legend:
# [1] = tested on: Micrococccus luteus NCIMB 8166; experiment: Antimicrobial activity (MIC, MBC) against M. luteus; assay type: cell-based; conditions: M. luteus NCIMB 8166, '-' = No activity
# [2] = tested on: Pseudomonas aeruginosa ATCC 27853; experiment: Antimicrobial activity (MIC, MBC) against P. aeruginosa; assay type: cell-based; conditions: P. aeruginosa ATCC 27853, '-' = No activity
# [3] = tested on: Staphylococcus aureus ATCC 25923; experiment: Antimicrobial activity (MIC, MBC) against S. aureus; assay type: cell-based; conditions: S. aureus ATCC 25923; for MBC/MIC: bactericidal ≤ 4, bacteriostatic > 4; for MIC: Staphylococcus aureus, ATCC25923, '-' = No activity
# [4] = tested on: Escherichia coli ATCC 25922; experiment: Antimicrobial activity (MIC, MBC) against E. coli; assay type: cell-based; conditions: E. coli ATCC 25922; '-' = No activity
# Candida krusei ATCC 6258 = experiment: Antifungal activity (MIC, MFC) against C. krusei; assay type: cell-based; conditions: C. krusei ATCC 6258, '-' = No activity; for MFC / MIC: Pichia kudriavzevii, ATCC6258
# [5] = Radical scavenging activity ABTS; conditions: for IC50: ABTS radical scavenging; for ABTS scavenging activity, fold higher than Trolox: relative to standard Trolox
# Method: The ABTS assay was performed as previously described by Tuberoso et al.. ABTS^+ radical was generated by oxidation of ABTS with potassium persulfate. The blue–green ABTS was produced through the reaction between 2 mM ABTS and […] potassium persulfate in water. The mixture was left to stand in the dark for 12 to 16 h before use. The ABTS solution was diluted with methanol to an absorbance of 0.700 ± 0.005 at 734 nm. Then 2 mL of diluted ABTS solution was mixed with 100 μL of samples and absorbance was measured after 1 min incubation at room temperature. A standard curve was obtained by using Trolox as standard solution. The results were expressed as μM Trolox equivalent.
# The mixture of 7 mmol/L aqueous ABTS solution with 2.45 mmol/L potassium persulfate solution constitutes a stable ABTS^+ stock solution that was allowed to stand in the dark and at room temperature for 12 to 16 h before use. A 1 mL sample of the diluted ABTS solution (adjusted to 0.7 ± 0.02 at […]) was added to 10 μL of each product. The absorbance was determined after 6 min. The percentage inhibition of the ABTS˙ radical was calculated from the following equation:% inhibition = (Abscontrol − Abstest)/Abscontrol × 100
# Abs control: the control absorbance.
# Abs test: the absorbance of the test sample after 6 min.
# [6] = Ferric reducing power assay (FRAP)
# [7] = tested on: Candida albicans ATCC 90028; experiment: Antifungal activity (MIC, MFC) against C. albicans; assay type: cell-based; conditions: C. albicans ATCC 90028, '-' = No activity; for MFC/MIC: fungicidal ≤ 4, fungistatic > 4; for MFC / MIC: Candida albicans, ATCC90028
# [8] = DPPH free radical scavenging activity; conditions: DPPH radical scavenging
# Method: DPPH, the stable artificial free radicals, has been widely used for the measurement of free radical scavenging capacity of the compounds in ethanol and aqueous systems. Briefly, 2 mL DPPH solution (0.2 mM, in 95% ethanol) was incubated with 2 mL different concentrations of compounds solution. Then, the reaction mixture was shaken and incubated in the dark for 40 min at room temperature. The absorbance was immediately recorded at 517 nm against ethanol with a spectrophotometer (Metash, model UV-5200, Shanghai Xiwen Biotech. Co., Ltd, Shanghai, China). The DPPH free radical scavenging rate was calculated using the equation:DPPH scavenging activity (%) = A0 − A1/A0 × 100 where A0 was the absorbance of the control reaction (containing all reagents except the tested compound), and A1 was the absorbance of the test reaction (containing all reagents with the tested compound). The percentage of DPPH radical scavenging activity was plotted against the sample concentration to acquire the IC50 value, defined as the concentration of sample necessary to cause 50% inhibition. Radical scavenging activity (RSA) was calculated from the IC50 value as the equation: RSA = pIC50 = −lg[IC50]. The smaller the IC50 value, the larger is the RSA value and the higher is the antioxidant activity.
SMILES,MBC/MIC [1],MBC/MIC [2],MBC/MIC [3],MBC/MIC [4],MFC/MIC (Candida krusei ATCC 6258),MFC (Candida krusei ATCC 6258),MIC (Candida krusei ATCC 6258),"MIC ([1]; Micrococcus luteus, NCIMB8166)",IC50 [5],IC50 [6],"MIC ([2]; Pseudomonas aeruginosa, ATCC27853)",melting point,MFC/MIC [7],MFC [7],MIC [7],IC50 [8],MIC [3],"ABTS scavenging activity, fold higher than Trolox [5]"
"CN(C)[C@@H]1C(O)=C(C(N)=O)C(=O)[C@@]2(O)C(O)=C3C(=O)c4c(O)cccc4[C@@](C)(O)[C@H]3C[C@@H]12 [Tetracycline, reference compound]",2,2,2,1,,,,,,,,,,,,,,
"CN1C(=O)CC2(C1=O)C(c1cc(Br)c(O)c(Br)c1)CN(C)C21c2ccccc2-c2nc3ccccc3nc21 (stereo not shown) [5m, Spiro [2,11″]indeno-[1,2b]-quinoxaline-spiro-[3,3′]-N-methylsuccinimide-4-(3,5-dibromo-4-hydroxyphenyl)hexahydro-1H-pyrrolidines]",,4,8,1,1,49.1 mM,49.1 mM,98.2 mM,14.6 ± 0.26 µM,7.38 ± 0.14 µM,98.2 mM,214 to 216 °C,1,98.2 mM,98.2 mM,47.29 ± 0.06 µM,24.5 mM,
"CN1C(=O)CC2(C1=O)C(c1ccc(Br)cc1)CN(C)C21c2ccccc2-c2nc3ccccc3nc21 (stereo not shown) [5f, Spiro [2,11″]indeno-[1,2b]-quinoxaline-spiro-[3,3′]-N-methylsuccinimide-4-(4-bromophenyl)hexahydro-1H-pyrrolidines]",,2,2,2,1,57.7 mM,57.7 mM,,18.1 ± 0.53 µM,7.93 ± 0.44 µM,,200 to 202 °C,1,57.7 mM,57.7 mM,16.1 ± 0.39 µM,,~6 fold
"Cc1ccc(C2CN(C)C3(c4ccccc4-c4nc5ccccc5nc43)C23CC(=O)N(C)C3=O)cc1 (stereo not shown) [5b, Spiro [2,11″]indeno-[1,2b]-quinoxaline-spiro-[3,3′]-N-methylsuccinimide-4-(4-methylphenyl)hexahydro-1H-pyrrolidines]",,4,8,2,1,65.6 mM,65.6 mM,,57.51 ± 0.55 µM,63.26 ± 0.21 µM,,183 to 185 °C,2,,,33.74 ± 0.004 µM,65.6 mM,
"COc1ccccc1C1CN(C)C2(c3ccccc3-c3nc4ccccc4nc32)C12CC(=O)N(C)C2=O (stereo not shown) [5c, Spiro [2,11″]indeno-[1,2b]-quinoxaline-spiro-[3,3′]-N-methylsuccinimide-4-(2 methoxyphenyl)hexahydro-1H-pyrrolidines]",,2,16,,1,63.4 mM,63.4 mM,,7.03 ± 0.07 µM,3.69 ± 0.72 µM,,196 to 198 °C,1,63.4 mM,63.4 mM,3.26 ± 0.32 µM,31.7 mM,
"COc1ccc(C2CN(C)C3(c4ccccc4-c4nc5ccccc5nc43)C23CC(=O)N(C)C3=O)cc1Br (stereo not shown) [5k, Spiro [2,11″]indeno-[1,2b]-quinoxaline-spiro-[3,3′]-N-methylsuccinimide-4-(3-bromo-4-methoxyphenyl)hexahydro-1H-pyrrolidines]",,2,8,2,1,54.7 mM,54.7 mM,,7.69 ± 0.36 µM,6.03 ± 0.12 µM,,209 to 211 °C,1,,,123.4 ± 0.45 µM,54.7 mM,
"C[C@@H]1[C@H](O)[C@@H](C)/C=C/C=C/C=C/C=C/C=C/C=C/C=C/[C@H](O[C@@H]2O[C@H](C)[C@@H](O)[C@H](N)[C@@H]2O)C[C@@H]2O[C@](O)(C[C@@H](O)C[C@@H](O)[C@H](O)CC[C@@H](O)C[C@@H](O)CC(=O)O[C@H]1C)C[C@H](O)[C@H]2C(=O)O [Amphotericin B, reference compound]",,,,,1,5.41 mM,5.41 mM,,,,,,1,5.41 mM,5.41 mM,,,
"CN1C(=O)CC2(C1=O)C(c1ccccc1)CN(C)C21c2ccccc2-c2nc3ccccc3nc21 (stereo not shown) [5a, Spiro [2,11″]indeno-[1,2b]-quinoxaline-spiro-[3,3′]-N-methylsuccinimide-4-(phenyl)hexahydro-1H-pyrrolidines]",,4,2,2,1,67.6 mM,67.6 mM,,49.19 ± 0.46 µM,17 ± 0.52 µM,,173 to 175 °C,1,,,15.4 ± 0.65 µM,,
"CN1C(=O)CC2(C1=O)C(c1ccc(F)cc1)CN(C)C21c2ccccc2-c2nc3ccccc3nc21 (stereo not shown) [5g, Spiro [2,11″]indeno-[1,2b]-quinoxaline-spiro-[3,3′]-N-methylsuccinimide-4-(4-fluorophenyl)hexahydro-1H-pyrrolidines]",,2,16,2,1,32.5 mM,32.5 mM,,7.19 ± 0.11 µM,20.5 ± 0.6 µM,,205 to 207 °C,1,65 mM,65 mM,26 ± 0.5 µM,16.2 mM,about 14 fold
"Cc1c(C)c2c(c(C)c1O)CCC(C)(C(=O)O)O2 (stereo not shown) [Trolox, reference compound]",,,,,,,,,99.88 ± 0.31 µM,41.9 ± 2.07 µM,,,,,,31.2 ± 3.67 µM,,
